# Experimental data as given in ChEMBL document CHEMBL2203021, “The synthesis and biological evaluation of novel Danshensu-cysteine analog conjugates as cardiovascular-protective agents” (2012).
# Active and inactive are the calls of the source. The rule behind the calls is not given here.
# How the values were obtained:
# [1] = tested on: HUVEC; experiment: Inhibition of H2O2-induced cytotoxicity in HUVEC cells assessed as cell viability at 5 to 100 umol/L incubated 4 hrs prior to H2O2 challenge measured after 12 hrs by MTT assay; format: functional, cell-based; conditions: Homo sapiens
# [2] = tested on: HUVEC; experiment: Antioxidant activity against H2O2-induced lipid accumulation in HUVEC cells assessed as reduction in MDA level incubated 4 hrs prior to H2O2 challenge measured after 12 hrs; format: functional, cell-based; conditions: Homo sapiens
# [3] = tested on: HUVEC; experiment: Inhibition of H2O2-induced cytotoxicity in HUVEC cells assessed as LDH release at 50 umol/L incubated 4 hrs prior to H2O2 challenge measured after 12 hrs by LDH assay; format: functional, cell-based; conditions: Homo sapiens
# [4] = tested on: HUVEC; experiment: Inhibition of H2O2-induced cytotoxicity in HUVEC cells assessed as LDH release incubated 4 hrs prior to H2O2 challenge measured after 12 hrs by LDH assay; format: functional, cell-based; conditions: Homo sapiens
# [5] = tested on: HUVEC; experiment: Antioxidant activity against H2O2-induced lipid accumulation in HUVEC cells assessed as reduction in MDA level at 50 umol/L incubated 4 hrs prior to H2O2 challenge measured after 12 hrs; format: functional, cell-based; conditions: Homo sapiens
# [6] = tested on: HUVEC; experiment: Antioxidant activity in HUVEC cells assessed as […] in H2O2-induced GSH activity at 50 umol/L incubated 4 hrs prior to H2O2 challenge measured after 12 hrs; format: functional, cell-based; conditions: Homo sapiens
# [7] = tested on: HUVEC; experiment: Antioxidant activity against in HUVEC cells assessed as […] in H2O2-induced GSH activity incubated 4 hrs prior to H2O2 challenge measured after 12 hrs; format: functional, cell-based; conditions: Homo sapiens
# [8] = tested on: HUVEC; experiment: Antiapoptotic activity in HUVEC cells assessed as inhibition of H2O2-induced mitochondrial membrane potential reduction by JC-1 staining; format: functional, cell-based; conditions: Homo sapiens
# [9] = tested on: HUVEC; experiment: Antiapoptotic activity in HUVEC cells assessed as reduction in H2O2-induced nuclei-shrunk by Hoechst staining; format: functional, cell-based; conditions: Homo sapiens
# [10] = tested on: HUVEC; experiment: Antiapoptotic activity in HUVEC cells assessed as reduction in H2O2-induced nuclear condensation by hoechst staining; format: functional, cell-based; conditions: Homo sapiens
# [11] = tested on: HUVEC; experiment: Antiapoptotic activity against H2O2-induced HUVEC cells assessed as reduction in late apoptotic cells after 4 hrs by annexin V-FITC/propidium iodide staining-based flow cytometry; format: functional, cell-based; conditions: Homo sapiens
# [12] = tested on: HUVEC; experiment: Antiapoptotic activity against H2O2-induced HUVEC cells assessed as reduction in total apoptotic cells at 5 umol/L after 4 hrs by annexin V-FITC/propidium iodide staining-based flow cytometry; format: functional, Homo sapiens; set-up: scale not given: the % may be the effect or the level left
# [13] = tested on: HUVEC; experiment: Antiapoptotic activity against H2O2-induced HUVEC cells assessed as reduction in total apoptotic cells at 50 umol/L after 4 hrs by annexin V-FITC/propidium iodide staining-based flow cytometry; format: functional, Homo sapiens; set-up: scale not given: the % may be the effect or the level left
# [14] = tested on: HUVEC; experiment: Antiapoptotic activity against H2O2-induced HUVEC cells assessed as reduction in total apoptotic cells at 100 umol/L after 4 hrs by annexin V-FITC/propidium iodide staining-based flow cytometry; format: functional, Homo sapiens; set-up: scale not given: the % may be the effect or the level left
# [15] = tested on: HUVEC; experiment: Antiapoptotic activity in HUVEC cells assessed as reduction in H2O2-induced Bax level by Western blotting relative to control; format: functional, cell-based; conditions: Homo sapiens
# [16] = tested on: HUVEC; experiment: Antiapoptotic activity in HUVEC cells assessed as reduction in H2O2-induced p53 level by Western blotting relative to control; format: functional, cell-based; conditions: Homo sapiens
# [17] = tested on: HUVEC; experiment: Antiapoptotic activity in HUVEC cells assessed as reduction in H2O2-induced PARP level by Western blotting relative to control; format: functional, cell-based; conditions: Homo sapiens
# [18] = tested on: HUVEC; experiment: Antiapoptotic activity against H2O2-induced HUVEC cells assessed as increase in Bcl-2 level by Western blotting relative to control; format: functional, cell-based; conditions: Homo sapiens
# [19] = tested on: HUVEC; experiment: Antiapoptotic activity in HUVEC cells assessed as […] in H2O2-induced pro-caspase-3 level by Western blotting; format: functional, cell-based; conditions: Homo sapiens
# [20] = tested on: HUVEC; experiment: Antiapoptotic activity in HUVEC cells assessed as […] in H2O2-induced pro-caspase-9 level by Western blotting; format: functional, cell-based; conditions: Homo sapiens
# [21] = tested on: HUVEC; experiment: Inhibition of H2O2-induced cytotoxicity in HUVEC cells assessed as cell viability at 5 mmol/L incubated 4 hrs prior to H2O2 challenge measured after 12 hrs by MTT assay; format: functional, cell-based; conditions: Homo sapiens
# [22] = tested on: HUVEC; experiment: Inhibition of H2O2-induced cytotoxicity in HUVEC cells assessed as LDH release at 5 mmol/L incubated 4 hrs prior to H2O2 challenge measured after 12 hrs by LDH assay; format: functional, cell-based; conditions: Homo sapiens
# [23] = tested on: HUVEC; experiment: Antioxidant activity against H2O2-induced lipid accumulation in HUVEC cells assessed as reduction in MDA level at 5 mmol/L incubated 4 hrs prior to H2O2 challenge measured after 12 hrs; format: functional, cell-based; conditions: Homo sapiens
# [24] = tested on: HUVEC; experiment: Antioxidant activity in HUVEC cells assessed as […] in H2O2-induced GSH activity at 5 mmol/L incubated 4 hrs prior to H2O2 challenge measured after 12 hrs; format: functional, cell-based; conditions: Homo sapiens
smiles,measurement,setting,value
COC(=O)[C@H](CSCc1ccccc1)NC(=O)CCc1ccc2c(c1)OCO2,inhibition,[1],inactive
COC(=O)[C@@H](N)CSC(=O)/C(=C/c1ccc(OC(C)=O)c(OC(C)=O)c1)OC(C)=O,inhibition,[1],Active
COC(=O)[C@H](CSCc1ccccc1)NC(=O)/C(=C/c1ccc(OC(C)=O)c(OC(C)=O)c1)OC(C)=O,inhibition,[1],Active
same,Activity,[2],Dose-dependent effect
same,inhibition,[3],Active
same,inhibition,[4],Dose-dependent effect
same,Activity,[5],Active
same,Activity,[6],Active
same,Activity,[7],Dose-dependent effect
same,Activity,[8],Dose-dependent effect
same,Activity,[9],Dose-dependent effect
same,Activity,[10],Dose-dependent effect
same,Activity,[11],Dose-dependent effect
same,Activity,[12],20.1%
same,Activity,[13],9%
same,Activity,[14],5.4%
same,Activity,[15],Dose-dependent effect
same,Activity,[16],Dose-dependent effect
same,Activity,[17],Dose-dependent effect
same,Activity,[18],Dose-dependent effect
same,Activity,[19],Dose-dependent effect
same,Activity,[20],Dose-dependent effect
COC(=O)[C@H](CSC(=O)CCc1ccc2c(c1)OCO2)NC(=O)OC(C)(C)C,Activity,[1],inactive
COC(=O)[C@@H](N)CSC(=O)C(Cc1ccc2c(c1)OCO2)OC(C)=O (stereo partly drawn),inhibition,[1],Active
COC(=O)[C@H](CSC(=O)C(Cc1ccc(OC(C)=O)c(OC(C)=O)c1)OC(C)=O)NC(=O)OC(C)(C)C (stereo partly drawn),inhibition,[1],inactive
COC(=O)[C@H](CSC(=O)/C(=C/c1ccc(OC(C)=O)c(OC(C)=O)c1)OC(C)=O)NC(=O)OC(C)(C)C,inhibition,[1],Active
same,inhibition,[3],Active
same,Activity,[5],Active
same,Activity,[6],Active
COC(=O)[C@@H](N)CSC(=O)CCc1ccc(OC(C)=O)c(OC(C)=O)c1,Activity,[1],inactive
COC(=O)[C@@H](N)CSC(=O)C(Cc1ccc(OC(C)=O)c(OC(C)=O)c1)OC(C)=O (stereo partly drawn),inhibition,[1],inactive
COC(=O)[C@H](CSCc1ccccc1)NC(=O)C(Cc1ccc(OC(C)=O)c(OC(C)=O)c1)OC(C)=O (stereo partly drawn),inhibition,[1],Active
same,inhibition,[3],Active
same,Activity,[5],Active
same,Activity,[6],Active
COC(=O)[C@@H](N)CSC(=O)CCc1ccc2c(c1)OCO2,Activity,[1],inactive
COC(=O)[C@H](CSCc1ccccc1)NC(=O)C(Cc1ccc2c(c1)OCO2)OC(C)=O (stereo partly drawn),inhibition,[1],inactive
COC(=O)[C@H](CSCc1ccccc1)NC(=O)/C(=C/c1ccc2c(c1)OCO2)OC(C)=O,inhibition,[1],inactive
COC(=O)[C@H](CSCc1ccccc1)NC(=O)CCc1ccc(OC(C)=O)c(OC(C)=O)c1,inhibition,[1],Active
same,inhibition,[3],Active
same,Activity,[5],Active
same,Activity,[6],Active
COC(=O)[C@H](CSC(=O)C(Cc1ccc2c(c1)OCO2)OC(C)=O)NC(=O)OC(C)(C)C (stereo partly drawn),inhibition,[1],inactive
COC(=O)[C@H](CSC(=O)CCc1ccc(OC(C)=O)c(OC(C)=O)c1)NC(=O)OC(C)(C)C,Activity,[1],inactive
COC(=O)[C@@H](N)CSC(=O)/C(=C/c1ccc2c(c1)OCO2)OC(C)=O,inhibition,[1],Active
CC(=O)N[C@@H](CS)C(=O)O,inhibition,[21],Active
same,inhibition,[22],Active
same,Activity,[23],Active
same,Activity,[24],Active
COC(=O)[C@H](CSC(=O)/C(=C/c1ccc2c(c1)OCO2)OC(C)=O)NC(=O)OC(C)(C)C,inhibition,[1],Active
same,inhibition,[3],Active
same,Activity,[5],Active
same,Activity,[6],Active
